Structures can show the parent of a compound that is named as a salt.
Tests used:
IgG1 monoclonal antibody = test: Antioxidant screening: incubation of Media 1/Media 2 mixture spiked with antibody, color intensity of purified antibody; conditions: 1X test concentration (hypotaurine 9.16 mM, taurine 5.00 mM), 5 days 37° C.; normalized to positive control
Method: For antioxidant screening, a total volume of 40 ml media was prepared by mixing 1 part basal Media 1 and 0.3 part feed Media 2 to mirror a representative ratio of media used in cell culture conditions (Table 5). […] The samples were incubated at 37° C. with shaking at 250 rpm for a five day incubation period.
After incubation, the monoclonal antibody was purified using affinity chromatography. Color intensity of the concentrated antibody composition was measured in the purified pool using an assay wherein higher numerical values indicate higher color intensity and lower numerical values indicate lower color intensity. The numerical results were normalized to the positive control, where the value for the positive control was set at 0% change in color intensity.

monoclonal antibody = test: Screen of taurine, carnosine and aminoguanidine in culture media, relative color intensity of antibody; conditions: 27.2 g/L aminoguanidine hydrochloride, 7 days 37° C. 250 rpm (FIG. 10)
Method: In order to identify a compound that reduces in antibody compositions and works under cell culture conditions, a screen assay in cell free medium was conducted. Taurine, carnosine and aminoguanidine were chosen for screening. These compounds were dissolved in 25 mL culture media at the concentration of 1.2 g/L (taurine), 13.6 g/L (carnosine), and 27.2 g/L (aminoguanidine hydrochloride). After pH adjustment to a range from 6.8 to 7.2 and sterile filtration with Steriflip filter units (Millipore, Billerica, MA) the solution was incubated in 50 mL Falcon tubes (BD Biosciences, San Jose, CA) equipped with TubeSpin caps (TPP Techno Plastic Products AG, Trasadingen, Switzerland). CHO cells were incubated for 7 days in a moisture controlled cell culture incubator at 37° C. and 250 rpm with no protection from light to produce the monoclonal antibody.
The monoclonal antibody in the harvested cell culture fluid (HCCF) and the incubation broth was further purified with affinity chromatography. Color intensity of the concentrated antibody composition was measured in the purified pool using an assay wherein higher numerical values indicated higher color intensity and lower numerical values indicated lower color intensity.
The relative color intensity for antibodies produced in culture medium containing taurine, carnosine, or aminoguanidine are shown in FIG. 10.

[1] = tested on: antibody producing CHO cells; test: 2-liter stirred bioreactor fed-batch cell culture in Media 1/Media 2 with hypotaurine or carboxymethylcysteine; type: cell-based, Chinese Hamster; conditions: for Growth as measured by VCC: 12.95 mM hypotaurine or 10 mM carboxymethylcysteine in Media 1 (FIG. 7A); for cell viability: 12.95 mM hypotaurine or 10 mM carboxymethylcysteine in Media 1 (FIG. 7B); for antibody titer (HPLC): 12.95 mM hypotaurine or 10 mM carboxymethylcysteine in Media 1 (FIG. 8)
Method: Antibody producing CHO cells were inoculated at approximately 1.0×10^6 cells/mL in 2-liter stirred bioreactors (Applikon, Foster City, CA) containing 1 L of basal Media 1 supplemented with 12.95 mM hypotaurine or 10 mM carboxymethylcysteine (CAS number 638-23-3). Cells were cultured in fed-batch mode with addition of 100 mL of feed Media 2 per liter of cell culture fluid at days 3, 6 and 9 for initiation of the production phase. A positive control was included by culturing cells in Media 1 and 2 without hypotaurine supplementation. The concentration of glucose was analyzed every day and if the glucose concentration fell below 2 g/L, it was replenished from a […] stock solution of glucose for prevention of glucose depletion. Reactors were equipped with calibrated dissolved oxygen, pH and temperature probes. Dissolved oxygen was controlled on-line through sparging with air and/or oxygen. pH was controlled through addition of CO2 or Na2CO3 and antifoam was added to the cultures as needed. The cell cultures were maintained at pH 7.0 and a temperature of 37° C. from days 0 through 3, and then at 35° C. after day 3. The cell cultures were agitated at 275 rpm and the dissolved oxygen level was at 30% of air saturation. Osmolality was monitored using an osmometer from Advanced Instruments (Norwood, MA). Offline pH and metabolite concentrations were also determined daily using a Nova Bioprofile 400 (Nova Biomedical, Waltham, MA). VCC and cell viability was measured daily using a ViCell® automated cell counter (Beckman Coulter, Fullerton, CA). The cell culture fluid was collected daily by centrifuging 1 mL of cell culture fluid for determination of antibody titer using high performance liquid chromatography. At the end of the cell culture duration on day 14, when the amount of protein in the culture was approximately 2-10 g/L, the cell culture fluid from all samples was harvested by centrifugation. The monoclonal antibody in the harvested cell culture fluid was purified using protein A affinity chromatography. The protein A pool was concentrated to 150 g/L using Amicon Centricon centrifugal filter devices (Millipore Corporation, Billerica, MA). Color intensity of the concentrated antibody composition was measured in the concentrated protein A pool using two different assays wherein higher numerical values indicated higher color intensity and lower numerical values indicated lower color intensity. […] This color intensity reduction was confirmed by using a second color assay which detected an approximate 17% and 13% color intensity reduction in antibody compositions isolated from cell cultured in media supplemented with hypotaurine and carboxymethylcysteine, respectively (FIG. 9B).

[2] = listed as carboxy methyl cysteine

NCCS(=O)(=O)O [Taurine, 2-aminoethane-1-sulfonic acid]
reduction of color intensity of the antibody-containing compositions (IgG1 monoclonal antibody): approximately 5%

N=C(N)NN [aminoguanidine, aminoguanidine hydrochloride]
decrease of color (monoclonal antibody): about 71%

N[C@@H](CSCC(=O)O)C(=O)O [carboxymethylcysteine, (2R)-2-amino-3-[(carboxymethyl)sulfanyl]propanoic acid]
Growth as measured by VCC [1]: comparable among all cell cultures tested
Growth as measured by VCC [1, 2]: did not compromise
cell viability [1]: comparable among all cell cultures tested
cell viability [1, 2]: did not compromise
antibody titer (HPLC) [1]: comparable levels of antibody titers
antibody titer (HPLC) [1, 2]: did not significantly reduce
color intensity reduction of antibody compositions, second color assay ([1]; 12.95 mM hypotaurine or 10 mM carboxymethylcysteine, protein A pool concentrated to 150 g/L (FIG. 9B)): ~13%
